One data set concerns cataleptic responses. The conditions noted are these: cited from earlier work.
For data set [1], the target named is T1, human adenosine A1 receptors (Homo sapiens, UniProt P30542).
T1 construct: expressed in transfected cells; host or cells: CHO-K1
T1 sequence (P30542 1-326): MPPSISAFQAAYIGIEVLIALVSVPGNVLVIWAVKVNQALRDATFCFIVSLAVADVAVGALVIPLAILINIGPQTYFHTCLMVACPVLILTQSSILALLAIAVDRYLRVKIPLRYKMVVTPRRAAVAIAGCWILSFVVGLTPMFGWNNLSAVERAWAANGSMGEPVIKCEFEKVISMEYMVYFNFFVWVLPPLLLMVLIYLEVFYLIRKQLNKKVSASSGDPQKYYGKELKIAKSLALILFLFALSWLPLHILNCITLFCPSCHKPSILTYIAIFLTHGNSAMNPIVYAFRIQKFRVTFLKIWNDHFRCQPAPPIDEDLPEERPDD
Put plainly: Adenosine receptor binding: binding affinities at hA1 receptors ([3H]DPCPX displacement). The conditions noted are these: Table 1; for Ki: [3H]DPCPX displacement, CHO-K1 membranes, read-out: Binding Affinity hA1-Ki; for Binding Selectivity A1/A2a: ratio of Ki values.

For data set [2], the target named is T2, human adenosine A2A receptors (Homo sapiens, UniProt P29274).
T2 construct: host or cells: HEK-293
T2 sequence (P29274 whole entry): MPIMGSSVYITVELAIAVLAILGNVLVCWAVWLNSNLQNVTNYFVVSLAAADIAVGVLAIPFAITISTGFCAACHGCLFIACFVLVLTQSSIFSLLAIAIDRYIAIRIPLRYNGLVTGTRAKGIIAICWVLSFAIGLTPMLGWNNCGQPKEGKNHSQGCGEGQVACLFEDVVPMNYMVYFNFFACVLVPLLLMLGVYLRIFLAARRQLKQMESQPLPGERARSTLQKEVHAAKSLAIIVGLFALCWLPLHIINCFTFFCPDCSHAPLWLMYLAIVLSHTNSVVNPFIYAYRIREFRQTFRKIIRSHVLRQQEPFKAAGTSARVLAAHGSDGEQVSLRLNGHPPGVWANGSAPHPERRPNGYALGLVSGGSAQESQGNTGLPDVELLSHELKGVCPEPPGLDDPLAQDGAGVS
The data set is described as follows: Adenosine receptor binding: binding affinities at hA2A receptors ([3H]CGS-21680 displacement). The conditions noted are these: Table 1; [3H]CGS-21680 displacement, HEK-293 membranes; read-out: Binding Affinity hA2A-Ki.

For another data set, the target named is T3, hA2B receptors (Homo sapiens, UniProt P29275).
T3 construct: host or cells: HEK-293
T3 sequence (P29275 1-332): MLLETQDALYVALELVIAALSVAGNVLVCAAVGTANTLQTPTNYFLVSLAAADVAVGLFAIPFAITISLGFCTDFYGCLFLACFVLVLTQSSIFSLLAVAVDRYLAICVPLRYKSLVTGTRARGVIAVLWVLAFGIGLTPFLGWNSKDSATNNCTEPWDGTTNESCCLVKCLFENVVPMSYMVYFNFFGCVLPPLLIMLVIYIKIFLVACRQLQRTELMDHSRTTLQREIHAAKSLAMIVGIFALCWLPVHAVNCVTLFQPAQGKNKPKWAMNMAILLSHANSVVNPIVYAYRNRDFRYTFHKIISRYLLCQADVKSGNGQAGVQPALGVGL
Put plainly: Adenosine receptor binding: binding affinities at hA2B receptors ([3H]-ZM241385 displacement). The conditions noted are these: Table 1; for Ki: [3H]-ZM241385 displacement, HEK-293 membranes, read-out: Binding Affinity hA2B-Ki; for Binding Selectivity A2b/A2a: ratio of Ki values.

The target in data set [3] is T4, human adenosine A3 receptors (Homo sapiens, UniProt P0DMS8).
T4 construct: expressed in transfected cells; host or cells: CHO-K1
T4 sequence (P0DMS8 1-318): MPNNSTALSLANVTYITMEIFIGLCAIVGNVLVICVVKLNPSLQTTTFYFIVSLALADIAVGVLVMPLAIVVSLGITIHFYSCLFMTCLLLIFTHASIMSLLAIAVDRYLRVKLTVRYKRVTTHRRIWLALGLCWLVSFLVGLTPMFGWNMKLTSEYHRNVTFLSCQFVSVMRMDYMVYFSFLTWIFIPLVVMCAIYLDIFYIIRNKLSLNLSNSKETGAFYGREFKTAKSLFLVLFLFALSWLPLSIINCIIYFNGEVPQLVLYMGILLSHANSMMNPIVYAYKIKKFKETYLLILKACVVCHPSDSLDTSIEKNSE
The data set is described as follows: Adenosine receptor binding: binding affinities at hA3 receptors ([125I]-AB MECA displacement). The conditions noted are these: Table 1; for Ki: [125I]-AB MECA displacement, CHO-K1 membranes, read-out: Binding Affinity hA3-Ki; for Binding Selectivity A3/A2a: ratio of Ki values.

Data set [4] relates to haloperidol-induced deficits in locomotor activity in mice. The data set is described as follows: Haloperidol-induced hypolocomotion model (HaloLMA). Type of data set: in vivo. The conditions noted are these: female TO mice, intraperitoneal, haloperidol 0.2 mg/kg.
The subject of a further data set is Parkinsonian patients. The conditions noted are these: cited from earlier work.

Molecules are shown by their SMILES.

Consider 4 compounds from patent publication US11466019B2, “Triazolo[4,5-d] pyramidine derivatives and their use as purine receptor antagonists” (Vernalis (R&D) Limited, priority 2008, dated 2022).

Take `CCCn1c(=O)c2c(nc(/C=C/c3ccc(OC)c(OC)c3)n2C)n(CCC)c1=O` [KF 17837, E-8-(3,4dimethoxystyryl)-1,3-dipropyl-7-methylxanthine]: the “anticataleptic effects of a subthreshold dose of L-DOPA plus benserazide” value in the data set on cataleptic responses (combination) is given as “potentiated the anticataleptic effects”. The “catalepsy induced by haloperidol and reserpine” value with cataleptic responses (in vivo) is “reduced the catalepsy”. Further, the “cataleptic responses induced by intracerebroventricular administration of CGS 21680” value with cataleptic responses (oral administration) was “significantly ameliorated”.
In the case of `Cc1ccc(-c2nc(N)nc3c2nnn3Cc2cccc(COCC3CCCO3)n2)o1` (stereo not drawn) [Example 33, 745-methylfuran-2-yl-3-(6-[tetrahydrofuran-2-ylmethyl]oxymethylpyrid-2-ylmethyl)-3H-[1,2,3]triazolo[4,5-d]pyrimidin-5-amine], the melting point (commonly the temperature, or range, at which the solid turns liquid) lay in the range of 154.2 to 154.5 °C. In data set [1], the Ki (usually the dissociation constant of the complex between target and ligand, obtained from inhibition or displacement) was determined as 0.299 µM; the “Binding Selectivity A1/A2a” value is listed as 42. Further, the Ki in data set [2] was 0.0072 µM. Also, at hA2B receptors, the Ki amounted to 1.98 µM and the “Binding Selectivity A2b/A2a” value stood at 274. In data set [3], the Ki was determined as 2.18 µM and the “Binding Selectivity A3/A2a” value is given as 303. Also, the “In Vivo activity HaloLMA MED” value in data set [4] was found to be 3 mg/kg.
For `Cn1c(=O)c2[nH]cnc2n(C)c1=O` [theophylline, 1,3-dimethylxanthine], the “mean objective disability scores” value in the data set on Parkinsonian patients (15 Parkinsonian patients, treated for up to 12 weeks) is “significant improvements”. Moreover, the “patients who reported moderate or marked subjective improvement” value in the data set with Parkinsonian patients (of 15 Parkinsonian patients, treated for up to 12 weeks) is 11. In addition, the serum theophylline levels in the data set with Parkinsonian patients (slow release oral theophylline preparation, after one week, Parkinsonian patients) is listed as 4.44 mg/L.
In turn, `Cc1ccc(-c2nc(N)nc3c2nnn3Cc2cccc(COCC3CCOC3)n2)o1` (racemic) [Example 34, 7-(5-methylfuran-2-yl)-3-(6-[tetrahydrofuran-3-ylmethyl]oxymethylpyrid-2-ylmethyl)-3H-[1,2,3]triazolo[4,5-d]pyrimidin-5-amine] came in with a melting point of 168.7 to 168.9 °C. For the same compound, in data set [1], the Ki turned out to be 0.164 µM and the “Binding Selectivity A1/A2a” value was 40. The Ki in data set [2] is 0.0041 µM. For the same compound, on hA2B receptors, the Ki amounted to 1.89 µM and the “Binding Selectivity A2b/A2a” value is 457. In data set [3], the Ki was 2.12 µM and the “Binding Selectivity A3/A2a” value turned out to be 513. In addition, the “In Vivo activity HaloLMA MED” value in data set [4] was found to be 1 mg/kg.
